From patent US11904051B2, “Shear stress sensitive liposomes” (Universität Basel, priority 2018, dated 2024)

How the values were obtained:
[1] = Surface pressure/area per molecule isotherms of monolayers on Langmuir-Pockels trough; type: physicochemical
Method: The surface pressure/area per molecule isotherm measurements were carried out on a Langmuir-Pockels trough, equipped with a Wilhelmy paper balance (accuracy 0.2 mN/m), at the air-water interface. The isotherms were measured at different subphase temperatures between 5° C. and 25° C. (FIG. 2).
Above 10 C, a plateau of a mixed expanded/condensed phase transition was observed. The appearance of the plateau is accompanied by a shift of the initial lift-off area per molecule to higher values. The plateau represents the first-order phase transition from a liquid-expanded (LE) to a liquid-condensed (LC) phase. The plateau is not fully horizontal, especially it becomes steeper as the temperature increases. The monolayers themselves are stable over the measurable range of surface pressures up to an instrument-based cut-off at 51 mN/m. From the onset of the plateau it is possible to determine the temperature-dependent main transition pressure Πt. For 1,3-diheptadecanamidopropan-2-yl (2-(trimethylammonio) ethyl) phosphate this dependence can be described by a linear function (FIG. 3). The experimental data only deviates from this linear function in close vicinity of the minimum transition temperature T0 below which the transition into a condensed phase directly starts from the gas-analog state (re-sublimation process). […]

[2] = Spatially resolved SAXS of liposomes under dynamic (flow/shear) condition in microfluidic device; type: physicochemical
Method: The measurement in glass capillaries provided the fingerprint of Pad-PC-Pad liposome structure in static condition. In order to investigate the behavior of Pad-PC-Pad liposomes under an external perturbation, such as a shear stress gradient, 2D raster SAXS scans of Pad-PC-Pad liposomes under flow conditions, produced in a microfluidic device, were recorded. Three flow velocities v were tested: v=0.002; 0.02; and 0.2 μL/s. The corresponding shear rates were determined using Eq. 1. From the lowest to the highest flow rate, the shear rates in the constriction (h=250 μm, w=125 μm) were=1.54, 15.4, and 154.0 s^−1, whereas in the wide region (h=250 μm, w=1000 μm) they corresponded to =0.2 s^−1, 2.0 s^−1, and 20.0 s^−1 2 D maps of the mean scattering intensity in the range Δq=0:096 to 0:102 nm^−1 corresponding to a real space range Δd=65.4 to 61.6 nm between the overall size and the size of the phospholipid head-to-head distance are shown in FIG. 12.
The local modifications of the averaged scattering intensity distribution observed in the 2D scanning SAXS maps of FIG. 12 supported the selection of seven regions of the micro fluidic device, as shown in the sketch of FIG. 13. Three regions were selected before the constriction: one far (#1), one approaching (#2), and one very close (A); symmetrically, on the outlet side, three areas were chosen one very close (B), one close (#4), and one far from the constriction (#5). Region #3 was selected in the constriction avoiding the edges of the device. For each region, the radially integrated scattering intensity I as a function of the scattering vector q at each flow rate v is shown.
The spatially resolved SAXS measurements were performed at the cSAXS beamline at the Swiss Light Source (PSI, Villigen, Switzerland). The X-ray beam was focused to 25 μm×50 μm (vertical×horizontal) spot size at the specimen location, the photon energy was set to 11:2 keV (λ=1:1 Å), and the sample-detector distance to 7:102 m, determined by the first scattering order of a silver behenate specimen. The scattering signal was recorded using the Pilatus 2M detector (Kraftet al., J. Synchrotron Radiat. 2009, 16, 368-375) (pixel size: 172 μm_×172 μm). Dynamic spatially resolved SAXS measurements of the liposomal suspensions were performed using microfluidic devices mounted on an aluminum/polyetheretherketone/aluminum sample holder. Two-dimensional (2D) scans were realized line-by-line by continuously moving the device in horizontal direction, while the detector recorded the data in burst mode. 48 (v)×96 (h) points at step size 25 μm (v)×50 μm (h) were acquired in a pre-selected region of the microfluidic device with an exposure time of 1:5 s per point. The data were processed using the Matlab package available from the beamline (https://www.psi.ch/sls/csaxs/software). During the experiment, the flow rates were adjusted using a syringe pump system (Nemesys, Cetoni GmbH, Korbussen, Germany) connected to the microchannel using polytetrafluoroethylene (PTFE) tubing. For the point-wise background correction, the scattering signal of ultra-pure water in the microfluidic device for all the measured flow rates was recorded before the acquisition of the SAXS signal of the liposomal suspensions. For the microfluidic device with a rectangular channel cross-section, the wall shear rates were calculated from the volumetric flow rates v using the following equation: (Molloy et al., Journal of Thrombosis and Haemostasis 2016, 15, 972-982) λ=6v=h^2w (1) with the shear rate [s^−1], v the volumetric flow rate [μL/s], and w and h the width and height [μm] of the channel, respectively.

[3] = flow rate 0.002 pL/s, position #1
[4] = flow rate 0.002 pL/s, position #2
[5] = flow rate 0.002 pL/s, position #3 (constriction)
[6] = flow rate 0.002 pL/s, position #4
[7] = flow rate 0.002 pL/s, position #5
[8] = flow rate 0.002 pL/s, position A
[9] = flow rate 0.002 pL/s, position B
[10] = flow rate 0.02 pL/s, position #1
[11] = flow rate 0.02 pL/s, position #2
[12] = flow rate 0.02 pL/s, position #3 (constriction)
[13] = flow rate 0.02 pL/s, position #4
[14] = flow rate 0.02 pL/s, position #5
[15] = flow rate 0.02 pL/s, position A
[16] = flow rate 0.02 pL/s, position B
[17] = flow rate 0.20 pL/s, position #1
[18] = flow rate 0.20 pL/s, position #2
[19] = flow rate 0.20 pL/s, position #3 (constriction)
[20] = flow rate 0.20 pL/s, position #4
[21] = flow rate 0.20 pL/s, position #5
[22] = flow rate 0.20 pL/s, position A
[23] = flow rate 0.20 pL/s, position B

In the case of `CCCCCCCCCCCCCCCCC(=O)NCC(CNC(=O)CCCCCCCCCCCCCCCC)OP(=O)([O-])OCC[N+](C)(C)C` [Rad-PC-Rad, 1,3-diheptadecanamidopropan-2-yl (2-(trimethylammonio)ethyl) phosphate], the “minimum transition temperature T0 of monolayer” value ([1]; air-water interface) is reported as 11.2 °C and the “critical temperature of monolayers” value ([1]; extrapolation of ΔS to zero) is reported as 306.3 K.
For `CCCCCCCCCCCCCCCC(=O)NCC(CNC(=O)CCCCCCCCCCCCCCC)OP(=O)([O-])OCC[N+](C)(C)C` [Pad-PC-Pad, 1,3-palmitoylamido-1,3-deoxy-sn-glycero-2-phosphatidylcholine], the “Radius of gyration Rg” value [2, 3] was 59.5 ± 0.2 nm, the head-to-head distance dhh [2, 3] was 3.4 ± 0.7 nm and the “Radius of gyration Rg” value [2, 4] was 59.1 ± 0.1 nm. The head-to-head distance dhh [2, 4] was 3.1 ± 0.4 nm, the “Radius of gyration Rg” value [2, 5] was 63.0 ± 0.5 nm and the head-to-head distance dhh [2, 5] was 3.9 ± 0.7 nm. For the same molecule, the “Radius of gyration Rg” value [2, 6] was 61.1 ± 0.2 nm, the head-to-head distance dhh [2, 6] was 3.9 ± 0.4 nm and the “Radius of gyration Rg” value [2, 7] was 61.6 ± 0.2 nm. For the same molecule, the head-to-head distance dhh [2, 7] was 3.8 ± 0.3 nm, the “Radius of gyration Rg” value [2, 8] was 60.3 ± 0.4 nm and the head-to-head distance dhh [2, 8] was 3.4 ± 0.5 nm. For the same molecule, the “Radius of gyration Rg” value [2, 9] was 59.3 ± 0.9 nm, the head-to-head distance dhh [2, 9] was 4.0 ± 0.6 nm and the “Radius of gyration Rg” value [2, 10] was 60.2 ± 0.2 nm. The head-to-head distance dhh [2, 10] was 3.4 ± 0.7 nm, the “Radius of gyration Rg” value [2, 11] was 58.0 ± 0.4 nm and the head-to-head distance dhh [2, 11] was 2.9 ± 0.2 nm. For the same molecule, the “Radius of gyration Rg” value [2, 12] was 64.3 ± 0.6 nm, the head-to-head distance dhh [2, 12] was 3.5 ± 0.6 nm and the “Radius of gyration Rg” value [2, 13] was 59.1 ± 0.3 nm. The head-to-head distance dhh [2, 13] was 3.6 ± 0.3 nm, the “Radius of gyration Rg” value [2, 14] was 61.3 ± 0.1 nm and the head-to-head distance dhh [2, 14] was 3.9 ± 0.4 nm. The “Radius of gyration Rg” value [2, 15] was 55.1 ± 0.5 nm, the head-to-head distance dhh [2, 15] was 2.9 ± 0.2 nm and the “Radius of gyration Rg” value [2, 16] was 52.4 ± 0.8 nm. The head-to-head distance dhh [2, 16] was 4.3 ± 0.5 nm, the “Radius of gyration Rg” value [2, 17] was 61.6 ± 0.4 nm and the head-to-head distance dhh [2, 17] was 3.4 ± 0.9 nm. For the same molecule, the “Radius of gyration Rg” value [2, 18] was 61.0 ± 0.5 nm, the head-to-head distance dhh [2, 18] was 3.4 ± 0.7 nm and the “Radius of gyration Rg” value [2, 19] was 64.0 ± 0.8 nm. For the same molecule, the head-to-head distance dhh [2, 19] was 3.8 ± 0.8 nm, the “Radius of gyration Rg” value [2, 20] was 58.0 ± 0.3 nm and the head-to-head distance dhh [2, 20] was 4.0 ± 0.6 nm. For the same molecule, the “Radius of gyration Rg” value [2, 21] was 60.0 ± 0.4 nm, the head-to-head distance dhh [2, 21] was 4.0 ± 0.7 nm and the “Radius of gyration Rg” value [2, 22] was 61.4 ± 0.6 nm. For the same molecule, the head-to-head distance dhh [2, 22] was 3.2 ± 0.6 nm, the “Radius of gyration Rg” value [2, 23] was 52.3 ± 0.9 nm and the head-to-head distance dhh [2, 23] was 4.4 ± 0.4 nm.
